Reference: patent US20240066027A1 (DOMAIN THERAPEUTICS, priority 2020, published 2024)

Biological target: T1, human PAR-2 (hPAR-2) receptor expressed in HEK-293 T cells in an endogenous manner (Homo sapiens, UniProt P55085)
T1 construct: human PAR-2 (hPAR-2) receptor expressed in HEK-293 T cells in an endogenous manner; endogenous in cells; host or cells: HEK-293 T cells
T1 sequence (P55085 26-397): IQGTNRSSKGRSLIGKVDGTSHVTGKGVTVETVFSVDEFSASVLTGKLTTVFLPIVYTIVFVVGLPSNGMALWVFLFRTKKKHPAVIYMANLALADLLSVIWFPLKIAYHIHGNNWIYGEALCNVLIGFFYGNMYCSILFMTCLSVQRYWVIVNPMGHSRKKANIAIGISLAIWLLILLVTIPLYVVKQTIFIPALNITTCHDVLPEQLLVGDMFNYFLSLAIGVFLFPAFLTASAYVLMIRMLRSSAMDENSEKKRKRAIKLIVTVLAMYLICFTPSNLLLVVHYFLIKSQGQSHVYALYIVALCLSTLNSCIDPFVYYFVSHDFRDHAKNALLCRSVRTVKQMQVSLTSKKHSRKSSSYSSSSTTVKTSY
Assay: In vitro human PAR-2 functional antagonist activity using calcium assays (Fluo4AM, FLIPR Tetra)
Type: cell-based
Details: HEK-293 T cells stimulated by an EC80 of the 2-Furoyl-LIGRLO-NH2 peptide after 10 min incubation with compound; 20 concentrations, duplicate, two independent experiments
Protocol: In vitro human PAR-2 functional antagonist activity using calcium assays
Examples of the present invention were tested successively for their agonist and antagonist activities on human PAR-2 (hPAR-2) receptor expressed in HEK-293 T cells in an endogenous manner. Compounds exert agonist activity if, by themselves in absence of the 2-Furoyl-LIGRLO-NH2 peptide (selective hPAR-2 agonist), they activate PAR-2; they exert antagonist activity if they decrease the action of the 2-Furoyl-LIGRLO-NH2 peptide on the receptor. The assay used to determine compound activity is based on calcium measurement.
Cell Culture: HEK-293 T cells were maintained in Dulbecco's Modified Eagle's Medium supplemented with 10% Foetal Calf Serum, 1% Penicillin/Streptomycin at 37° C./5% CO2. Flasks for tests (F75) are seeded with 6e+06 cells 24 h before the experiment at 37° C./5% CO2.
Calcium assay: Receptor activity was detected by changes in intracellular calcium measured using the fluorescent Ca^2+ sensitive dye, Fluo4AM (Molecular Probes).
The day of the assay, medium was replaced by assay buffer (HBSS 1× (Gibco 14175-053), Hepes 20 mM, MgSO4-7H2O 1 mM, Na2CO3 3.3 mM, CaCl2-2H2O 1.3 mM, 0.5% BSA, Probenecid 2.5 mM, 0.1 mg/mL Pluronic Acid) and complemented with 1 μM Fluo4AM and cells were incubated during 1:30 h at 37° C.
Cells were then detached, resuspended in assay buffer and seeded in 384 wells, transparent-flat bottom black walled plates (2e+04 cells per well). Plates were incubated at +22° C. for 20 min. Compounds stock solutions were prepared in 100% DMSO and dilutions in test buffer were carried out in polypropylene plates with a digital dispenser (D300e, Tecan). Compounds were added to the cells and intracellular Ca^2+ measurements were collected at the same time on FLIPR Tetra® (Molecular Devices) with specific filters (Exc: 470-495 nm/Em: 515-575 nm).
Agonist and antagonist activities of compounds were consecutively evaluated on the same cell plate. Agonist activity was first measured after 10 min incubation with the compound alone. Then, cells were stimulated by an EC80 of the 2-Furoyl-LIGRLO-NH2 peptide and fluorescence was recorded for an additional 5 min. EC80 of the 2-Furoyl-LIGRLO-NH2 peptide was the concentration giving 80% of the maximal 2-Furoyl-LIGRLO-NH2 response. Agonist activities are evaluated in comparison to basal signals evoked by assay buffer or maximal 2-Furoyl-LIGRLO-NH2 response. […] Antagonist activities are evaluated in comparison to basal signals evoked by assay buffer or EC80 of 2-Furoyl-LIGRLO-NH2 alone.

SMILES | IC50
CN1CCN(C(=O)c2ccc3c(-c4ccc(Cl)c(F)c4)cn(C(C)(C)C)c3n2)C(C)(C)C1=O [Example 2, 4-(1-(tert-butyl)-3-(4-chloro-3-fluorophenyl)-1H-pyrrolo[2,3-b]pyridine-6-carbonyl)-1,3,3-trimethylpiperazin-2-one] | < 0.02 µM
COC(=O)CN1CCN(C(=O)c2ccc3c(-c4ccc(Cl)c(F)c4)cn(C(C)(C)C)c3n2)C(C)(C)C1=O [Example 3, methyl 2-(4-(1-(tert-butyl)-3-(4-chloro-3-fluorophenyl)-1H-pyrrolo[2,3-b]pyridine-6-carbonyl)-3,3-dimethyl-2-oxopiperazin-1-yl)acetate] | < 0.02 µM
CC1(C)C(=O)N(CC(N)=O)CCN1C(=O)c1ccc2c(-c3ccc(Cl)c(F)c3)cn(C(C)(C)C)c2n1 [Example 5, 2-(4-(1-(tert-butyl)-3-(4-chloro-3-fluorophenyl)-1H-pyrrolo[2,3-b]pyridine-6-carbonyl)-3,3-dimethyl-2-oxopiperazin-1-yl)acetamide] | < 0.02 µM
CN(C)C(=O)CN1CCN(C(=O)c2ccc3c(-c4ccc(Cl)c(F)c4)cn(C(C)(C)C)c3n2)C(C)(C)C1=O [Example 7, 2-(4-(1-(tert-butyl)-3-(4-chloro-3-fluorophenyl)-1H-pyrrolo[2,3-b]pyridine-6-carbonyl)-3,3-dimethyl-2-oxopiperazin-1-yl)-N,N-dimethylacetamide] | < 0.02 µM
CC(C)(C)n1cc(-c2ccc(Cl)c(F)c2)c2ccc(C(=O)N3CC4(CCOC4)C3)nc21 [Example 9, (1-(tert-butyl)-3-(4-chloro-3-fluorophenyl)-1H-pyrrolo[2,3-b]pyridin-6-yl)(6-oxa-2-azaspiro[3.4]octan-2-yl)methanone] | > 10 µM
CC(C)(C)n1cc(-c2ccc(Cl)c(F)c2)c2ccc(C(=O)N3CC4(COC4)C3)nc21 [Example 10, (1-(tert-butyl)-3-(4-chloro-3-fluorophenyl)-1H-pyrrolo[2,3-b]pyridin-6-yl)(2-oxa-6-azaspiro[3.3]heptan-6-yl)methanone] | > 10 µM
CC(C)(C)n1cc(-c2ccc(Cl)c(F)c2)c2ccc(C(=O)N3[C@@H]4CC[C@H]3CC(O)C4)nc21 (stereo partly drawn) [Example 11, (1-(tert-butyl)-3-(4-chloro-3-fluorophenyl)-1H-pyrrolo[2,3-b]pyridin-6-yl)((1R,3r,5S)-3-hydroxy-8-azabicyclo[3.2.1]octan-8-yl)methanone] | > 10 µM
CC(C)(C)n1cc(-c2ccc(Cl)c(F)c2)c2ccc(C(=O)N3CC[C@H]4CNC(=O)[C@H]43)nc21 [Example 15, (3aS,6aS)-1-(1-(tert-butyl)-3-(4-chloro-3-fluorophenyl)-1H-pyrrolo[2,3-b]pyridine-6-carbonyl)hexahydropyrrolo[3,4-b]pyrrol-6(1H)-one] | 0.02 to 10 µM
CC1(C)CCCN1C(=O)c1ccc2c(-c3ccc(Cl)c(F)c3)cn(C(C)(C)C)c2n1 [Example 16, (1-(tert-butyl)-3-(4-chloro-3-fluorophenyl)-1H-pyrrolo[2,3-b]pyridin-6-yl)(2,2-dimethylpyrrolidin-1-yl)methanone] | 0.02 to 10 µM
CC(C)(C)n1cc(-c2ccc(Cl)c(F)c2)c2ccc(C(=O)N3[C@@H]4CC[C@H]3COC4)nc21 [Example 19, ((1R,5S)-3-oxa-8-azabicyclo[3.2.1]octan-8-yl)(1-(tertbutyl)-3-(4-chloro-3-fluorophenyl)-1H-pyrrolo[2,3-b]pyridin-6-yl)methanone] | 0.02 to 10 µM
CN1CCN(C(=O)c2ccc3c(-c4ccc(Cl)c(F)c4)cn(C(C)(C)C)c3n2)CC1=O [Example 20, 4-(1-(tertbutyl)-3-(4-chloro-3-fluorophenyl)-1H-pyrrolo[2,3-b]pyridine-6-carbonyl)-1-methylpiperazin-2-one] | 0.02 to 10 µM
COC(=O)C1CCN(C(=O)c2ccc3c(-c4ccc(Cl)c(F)c4)cn(C(C)(C)C)c3n2)CC1(C)C (centres unmarked) [Example 21, methyl 1-(1-(tert-butyl)-3-(4-chloro-3-fluorophenyl)-1H-pyrrolo[2,3-b]pyridine-6-carbonyl)-3,3-dimethylpiperidine-4-carboxylate] | 0.02 to 10 µM
CC1(C)CN(C(=O)c2ccc3c(-c4ccc(Cl)c(F)c4)cn(C(C)(C)C)c3n2)CCC1C(N)=O (centres unmarked) [Example 23, 1-(1-(tert-butyl)-3-(4-chloro-3-fluorophenyl)-1H-pyrrolo[2,3-b]pyridine-6-carbonyl)-3,3-dimethylpiperidine-4-carboxamide] | 0.02 to 10 µM

Continued, values first:

IC50 | SMILES
0.02 to 10 µM | Cc1cc(N(C)C2CCN(C(=O)c3ccc4c(-c5ccc(Cl)c(F)c5)cn(C(C)(C)C)c4n3)CC2C)nc(C)c1C(=O)O (mixture of isomers) [Example 199, 6-((1-(1-(tert-butyl)-3-(4-chloro-3-fluorophenyl)-1H-pyrrolo[2,3-b]pyridine-6-carbonyl)-3-methylpiperidin-4-yl)(methyl)amino)-2,4-dimethylnicotinic acid]
< 0.02 µM | CC1(C)C(=O)NCCN1C(=O)c1ccc2c(-c3ccc(Cl)c(F)c3)cn(C(C)(C)C)c2n1 [Example 1, 4-(1-(tert-butyl)-3-(4-chloro-3-fluorophenyl)-1H-pyrrolo[2,3-b]pyridine-6-carbonyl)-3,3-dimethylpiperazin-2-one]
0.02 to 10 µM | CC1(C)C(=O)N(CC(=O)O)CCN1C(=O)c1ccc2c(-c3ccc(Cl)c(F)c3)cn(C(C)(C)C)c2n1 [Example 4, 2-(4-(1-(tert-butyl)-3-(4-chloro-3-fluorophenyl)-1H-pyrrolo[2,3-b]pyridine-6-carbonyl)-3,3-dimethyl-2-oxopiperazin-1-yl)acetic acid]
< 0.02 µM | CNC(=O)CN1CCN(C(=O)c2ccc3c(-c4ccc(Cl)c(F)c4)cn(C(C)(C)C)c3n2)C(C)(C)C1=O [Example 6, 2-(4-(1-(tert-butyl)-3-(4-chloro-3-fluorophenyl)-1H-pyrrolo[2,3-b]pyridine-6-carbonyl)-3,3-dimethyl-2-oxopiperazin-1-yl)-N-methylacetamide]
< 0.02 µM | CC1(C)C(=O)N(CC(=O)N2CCOCC2)CCN1C(=O)c1ccc2c(-c3ccc(Cl)c(F)c3)cn(C(C)(C)C)c2n1 [Example 8, 4-(1-(tert-butyl)-3-(4-chloro-3-fluorophenyl)-1H-pyrrolo[2,3-b]pyridine-6-carbonyl)-3,3-dimethyl-1-(2-morpholino-2-oxoethyl)piperazin-2-one]
0.02 to 10 µM | CC(C)(C)n1cc(-c2ccc(Cl)c(F)c2)c2ccc(C(=O)N3CCC4(CCNC4=O)CC3)nc21 [Example 13, 8-(1-(tert-butyl)-3-(4-chloro-3-fluorophenyl)-1H-pyrrolo[2,3-b]pyridine-6-carbonyl)-2,8-diazaspiro[4.5]decan-1-one]
0.02 to 10 µM | CC(C)(C)n1cc(-c2ccc(Cl)c(F)c2)c2ccc(C(=O)N3CCC4(CC3)CNC(=O)C4)nc21 [Example 14, 8-(1-(tert-butyl)-3-(4-chloro-3-fluorophenyl)-1H-pyrrolo[2,3-b]pyridine-6-carbonyl)-2,8-diazaspiro[4.5]decan-3-one]
0.02 to 10 µM | CC(C)(C)n1cc(-c2ccc(Cl)c(F)c2)c2ccc(C(=O)N3CCCNC(=O)C3)nc21 [Example 17, 4-(1-(tert-butyl)-3-(4-chloro-3-fluorophenyl)-1H-pyrrolo[2,3-b]pyridine-6-carbonyl)-1,4-diazepan-2-one]
0.02 to 10 µM | CC(C)(C)n1cc(-c2ccc(Cl)c(F)c2)c2ccc(C(=O)N3CCNC(=O)CC3)nc21 [Example 18, 1-(1-(tertbutyl)-3-(4-chloro-3-fluorophenyl)-1H-pyrrolo[2,3-b]pyridine-6-carbonyl)-1,4-diazepan-5-one]
0.02 to 10 µM | CC1(C)CN(C(=O)c2ccc3c(-c4ccc(Cl)c(F)c4)cn(C(C)(C)C)c3n2)CCC1C(=O)O (centres unmarked) [Example 22, 1-(1-(tert-butyl)-3-(4-chloro-3-fluorophenyl)-1H-pyrrolo[2,3-b]pyridine-6-carbonyl)-3,3-dimethylpiperidine-4-carboxylic acid]
